Measurements from patent publication US20230218706A1 (9 Meters Biopharma, Inc., priority 2020, published 2023).
Entries after “also recorded” stand apart in the source; their conditions may differ. Where a SMILES comes first, the peptide text is derived from it. Where no end group is shown, it is not given here. [ ]: non-standard residue; d: D form.

Key:
[1] = tested on: pig ischemic jejunum tissue; test: Ex vivo assessment of peptide stability (degradation by brush border enzymes) in pig ischemic jejunum tissue; details: for peptide concentration, T = 0 mins after addition / peptide concentration, T = 30 mins after addition / peptide concentration, T = 120 mins after addition: 1 μm addition of each peptide to pig ischemic jejunum tissue
Text: (§1) After 45-minutes of ischemia, the pigs were euthanized, and intestinal segments were collected. Non-ischemic control tissue was also collected at this time. Following tissue collection, the seromuscular layer was stripped from the mucosa while the tissue was bathed in oxygenated (95% 02, 5% CO2) Ringer's solution (in mmol/L: 154 Na^+, 6.3 K^+, 137 Cl^−, and 24 HCO3−; pH 7.4). The mucosa was subsequently mounted in 1.1-cm^2 aperture Ussing chambers, as described in previous studies, which are herein incorporated by reference in their entireties, Moeser, A. J.; Nighot, P. K.; Ryan, K. A.; Wooten, J. G.; Blikslager, A. T. Prostaglandin-mediated inhibition of Na+/H+ exchanger isoform 2 stimulates recovery of barrier function in ischemia-injured intestine. Am J Physiol Gastrointest Liver Physiol (2006), 291, G885-94; and Jin, Y.; Blikslager, A. T. Myosin light chain kinase mediates intestinal barrier dysfunction via occludin endocytosis during anoxia/reoxygenation injury. Am J Physiol Cell Physiol (2016), 311, C996-C1004. Tissues were bathed on both the mucosal and serosal sides with 10 mL Ringer's solution. The mucosal bathing solution contained 10 mM mannitol while the serosal side was osmotically balanced with 10 mM glucose. Bathing solutions were oxygenated (95% O2, 5% CO2) and circulated in water-jacketed reservoirs. The spontaneous potential difference (PD) was measured using Ringer-agar bridges connected to calomel electrodes, and the PD was short-circuited through Ag—AgCl electrodes using a voltage clamp that was corrected for fluid resistance. TER (Ω·cm^2) was calculated from the spontaneous PD and short-circuit current (Isc). If the spontaneous PD was between −1.0 and 1.0 mV, tissues were current clamped at ±100 μA for 5-seconds, and the PD was recorded. Isc and PD were recorded at 15-minute intervals over a 4-hour experiment. After tissues were mounted on Ussing chambers, all tissues were allowed to acclimate for a period of 30-minutes to establish stable baseline measurements, after which experimental treatments of larazotide or larazotide analogs was added to the apical chamber. Tissues were monitored by measuring transepithelial resistance (TER) for 240 min. Samples of Ringers solution were collected at select timepoints and quenched with 5% trifluoroacetic acid (TFA) solution (in 80% acetonitrile (ACN): 20% DI water). Quenched samples were centrifuged at 13000×g for 5-minutes and the resulting supernatants were stored at −80° C. for future MS analysis.
The recovery effects of Analogs #5 and 6 were also compared in an ex vivo test for recovery of ischemic-injured pig jejunum tissue. […] Analogs #5 and 6 were further compared for peptide stability—Analog #5 (D-Val), Analog #6 (All D) and larazotide concentrations were measured at TO, 30, and 120 minutes after 1 μm addition of each to pig ischemic jejunum tissue.
A set of experiments was conducted in order to compare the all-D amino acid larazotide analog (Analog #6) with larazotide in terms of degradation profiles, recovery effects, and dose response profiles.

[2] = tested on: ischemic-injured porcine jejunum; test: Ex vivo recovery of transepithelial electrical resistance (TEER/TER) of ischemic-injured porcine jejunum in Ussing chambers; assay type: cell-based, pig; details: for effect of excess fragment on action of Analog #6: 10 μM fragment applied 30 mins before 0.1 μM Analog #6 (100 fold excess), FIGS. 8-10; for activity as tight junction regulators: fragment alone; for effect of fragment on larazotide activity: fragment mixed with full-length larazotide (10 μM fragment + 1 μM larazotide, FIG. 7); for induction of recovery of ischemic-injured tissue: FIG. 2
Text: In order to evaluate the activity profile of larazotide and larozotide analogs, an ex vivo assay was employed measuring transepithelial electrical resistance (TEER) of ischemic-injured porcine jejunum.
Several larazotide analogs were initially tested in an ex vivo model, measuring the recovery of an ischemic-injured pig jejunum tissue.
Six-to-eight-week-old Yorkshire crossbred pigs of either sex were individually housed and maintained on a commercially pelleted feed. Pigs were held off feed for 12 hours prior to experimental surgery. General anesthesia was induced with xylazine (1.5 mg/kg IM), ketamine (11 mg/kg IM), followed by mask delivery of isoflurane vaporized in 100% 02. Pigs were subsequently orotracheally intubated, followed by continued delivery of isoflurane in 100% 02 to maintain a surgical plane of anesthesia. An intravenous catheter was placed in an ear vein for delivery of fluids during surgery (lactated Ringer solution, 15 m1·kg^−1h^−1, IV). The distal jejunum was approached via a ventral midline incision. Jejunal segments were delineated by ligating the intestine at 8-10 cm intervals with 2-0 silk, and were subjected to segmental ischemia by ligating the local mesenteric blood supply with 2-0 silk for 45-minutes.
as §1, with “chamber.” for “chamber. Tissues were monitored by measuring transepithelial resistance (TER) for 240 min. Samples of Ringers solution were collected at select timepoints and quenched with 5% trifluoroacetic acid (TFA) solution (in 80% acetonitrile (ACN): 20% DI water). Quenched samples were centrifuged at 13000×g for 5-minutes and the resulting supernatants were stored at −80° C. for future MS analysis.”

[3] = tested on: BLM-induced pulmonary fibrosis model mice
Celiac disease symptoms = details: cited from earlier work

CC(C)C[C@H](NC(=O)[C@H](NC(=O)CNC(=O)CN)C(C)C)C(=O)N[C@H](C(=O)N[C@@H](CCC(N)=O)C(=O)N1CCC[C@H]1C(=O)NCC(=O)O)C(C)C [Analog #5, H2N-GG(dV)LVQPG-OH] (H-GG[dV]LVQPG-OH)
peptide concentration, T = 0 mins after addition [1]: 0.510 µg/mL
peptide concentration, T = 30 mins after addition [1]: 0.012 µg/mL
peptide concentration, T = 120 mins after addition [1]: 0.005 µg/mL

CC(C)C[C@@H](NC(=O)[C@H](NC(=O)CNC(=O)CN)C(C)C)C(=O)N[C@@H](C(=O)N[C@H](CCC(N)=O)C(=O)N1CCC[C@@H]1C(=O)NCC(=O)O)C(C)C [Analog #6, H2N-GG(dV)(dL)(dV)(dQ)(dP)G-OH] (H-GG[dV][dL][dV][dQ][dP]G-OH)
dose response of repair of injured intestine (TER) ([2]; 0.01 μM, 0.1 μM, 1 μM and 10 μM, FIG. 6): did not exhibit the distinct bell-shaped dose-response of larazotide
recovery of TER ([2]; 0.1 μM, FIG. 6): induced good recovery of TER
recovery of ischemic-injured intestine (transepithelial electrical resistance) ([2]; 1 μM, recovery period of 240 minutes, FIG. 5): induces recovery to substantially the same extent as larazotide
recovery effect on ischemic-injured pig jejunum tissue ([2]; FIG. 3, Analog #6 compared with Analog #5): pronounced recovery effect as compared to Analog #5
peptide concentration, T = 0 mins after addition [1]: 0.517 ug/ml ug/mL
peptide concentration, T = 30 mins after addition [1]: 0.436 µg/mL
peptide concentration, T = 120 mins after addition [1]: 0.086 µg/mL
resistance to brush border enzyme degradation ([1]; jejunum epithelial brush border enzymes, in words (Table 2, FIG. 4)): significant resistance to brush border enzyme degradation as compared to larazotide and Analog #5; also recorded: significantly more resistant to degradation than larazotide
lung fibrosis, Ashcroft grading of Masson's Trichrome-stained right lung sections ([3]; 1 mg/kg orally once daily Day 0 to 20, sacrifice Day 21, FIG. 18): less fibrosis than either the vehicle or larazotide samples
therapeutic effect in mouse model of pulmonary fibrosis ([3]; provided orally): better therapeutic effect than larazotide

(d)Val-(d)Leu-(d)Val-(d)Gln-(d)Pro-Gly [Analog A6F2]
effect of excess fragment on action of Analog #6 [2]: does not appear to be meaningfully blocked

GVLVQPG [Fragment 1, reference compound]
activity as tight junction regulators [2]: inactive as tight junction regulators
effect of fragment on larazotide activity [2]: inhibit larazotide activity; also recorded: activity is completely abolished

Gly-(d)Val-(d)Leu-(d)Val-(d)Gln-(d)Pro-Gly [Analog A6F1]
effect of excess fragment on action of Analog #6 [2]: less significant impact on the action of the all-D amino acid larazotide analog

H2N-(dV)GGVLVQPG-OH (H-[dV]GGVLVQPG-OH; SMILES CC(C)C[C@H](NC(=O)[C@@H](NC(=O)CNC(=O)CNC(=O)[C@H](N)C(C)C)C(C)C)C(=O)N[C@H](C(=O)N[C@@H](CCC(N)=O)C(=O)N1CCC[C@H]1C(=O)NCC(=O)O)C(C)C) [Analog #2]
induction of recovery of ischemic-injured tissue [2]: no significant induction of recovery

H2N-GGV(dL)VQPG-OH (H-GGV[dL]VQPG-OH) [Analog #1]
induction of recovery of ischemic-injured tissue [2]: no significant induction of recovery

H2N-VGGVLVQPG-OH (H-VGGVLVQPG-OH) [Analog #3]
induction of recovery of ischemic-injured tissue [2]: no significant induction of recovery

H-GGVLVQPG-OH [Larazotide, reference compound]
dose-response of repair of ischemic-injured intestine (TEER) ([2]; FIG. 1, low, middle and high dose range): “bell-shaped” dose-dependent manner
peptide concentration, T = 0 mins after addition [1]: 0.508 µg/mL
peptide concentration, T = 30 mins after addition [1]: 0.212 µg/mL
peptide concentration, T = 120 mins after addition [1]: 0.007 µg/mL
activity at higher doses in clinical trials (Celiac disease symptoms; higher doses (e.g., 1 mg and 2 mg doses)): attenuation of activity, or no activity at all
reduction of Celiac disease symptoms (Celiac disease symptoms; lower doses (e.g., 0.5 mg dose)): significant benefit at reducing Celiac disease symptoms

VLVQPG [Fragment 2, reference compound]
activity as tight junction regulators [2]: inactive as tight junction regulators
effect of fragment on larazotide activity [2]: inhibit larazotide activity; also recorded: activity is completely abolished
